This note sets out measurements from ChEMBL document CHEMBL4418300, “Uses of fahd1” (2016).

A word on the IC50: it is the point on the concentration scale where inhibition reaches its midpoint.

For this assay, the target named is T1, Oxaloacetate tautomerase FAHD1, mitochondrial (Homo sapiens, UniProt Q6P587).
T1 sequence (Q6P587 whole entry): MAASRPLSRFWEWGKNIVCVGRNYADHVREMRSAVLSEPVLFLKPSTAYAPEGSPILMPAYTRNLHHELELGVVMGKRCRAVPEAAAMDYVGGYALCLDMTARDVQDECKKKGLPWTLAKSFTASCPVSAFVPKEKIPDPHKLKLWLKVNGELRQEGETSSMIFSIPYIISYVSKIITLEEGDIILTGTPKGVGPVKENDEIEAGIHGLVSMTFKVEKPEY
Kind of assay: Inhibition of wild-type recombinant N-terminal His6 and S-tagged full-length human FAHD1 expressed in Escherichia coli using oxaloacetate as substrate by photometric analysis.

As for `O=C([O-])C(=O)[O-].[Na+].[Na+]` [SODIUM OXALATE], the IC50 is 20 µM.
